# Laboratory results from patent publication US6121290A, “Use of GABA uptake inhibitors as anti-tussive agents” (SmithKline Beecham Corporation, priority 1998, dated 2000).
# Legend:
# [1] = tested on: citric acid-induced cough; test: Citric acid-induced cough in guinea pigs (anti-tussive activity in vivo); set-up: species or system Male Hartley Guinea pigs; conditions: 0.4M citric acid, 30 min pre-treatment; for Treated (incidences of cough): coughs in 13 minutes; for % Inhibition: cough inhibition vs control
# Experimental: Citric acid was nebulized for only one minute to the animals. Coughs were determined by examination of the flow signal and observation of the test animals.
# To perform the experiments Male Hartley Guinea pigs weighing between 550, and 750 g were placed into a clear plastic exposure chamber with an internal volume of 6 l. A bias air flow was applied to the chamber at a flow rate of 2 l/min for the duration of the experiment.
# An incidence of cough was denoted by a larger than normal inspiration (at least twice normal tidal deflection) followed immediately by a rapid, forceful expiration (more than three times the normal excursion from baseline). A cough was easily distinguished from animal movement, augmented breaths and gasps by close inspection of the data. Because a sneeze and cough have similar flow patterns, they were differentiated by visual observation of the animals.
# Test compounds were administered via the IP route, and the pre-treatment time was 30 min. The aerosol was administered to the animals by connecting a small volume ultrasonic nebulizer (AeroSonic model 5000D Devilbis Sumerset, Pa.) to the bias-flow immediately before the exposure chamber inlet. The animals were challenged with 0.4M citric acid aerosol solution. A volume of 2 ml of citric acid solution was placed in the ultrasonic nebulizer. In one minute approximately 0.5 ml of the solution was nebulized to each animal. This has been previously shown to induce the cough reflex. The incidences of cough in 13 minutes (aerosolization time+observation time,) as well as time to onset of the first cough were recorded.
# [2] = tested on: GABA uptake; conditions: in words, from cited literature; cited from earlier work
# [3] = tested on: citric acid-induced cough; test: Citric acid-induced cough in guinea pigs (anti-tussive activity in vivo); set-up: species or system Male Hartley Guinea pigs; conditions: 0.4M citric acid; for Treated (incidences of cough): coughs in 13 minutes; for % Inhibition: cough inhibition vs control
smiles,measurement,setting,value
"O=C(O)CC1CCN(CCC=C(c2ccccc2)c2ccccc2)C1 (centres unmarked) [Compound 1, N-(4,4-diphenyl-3-butenyl)-3-pyrrolidineacetic acid]",Treated (incidences of cough),[1]; 20 mg ip,7.2
same,% Inhibition,[1]; 20 mg ip,53.13%
"O=C(O)C1=CCCN(CCC=C(c2ccccc2)c2ccccc2)C1 [Compound 5, N-(4,4-diphenyl-3-butenyl)-1,2,5,6-tetrahydro-3-pyridinecarboxylic acid]",Treated (incidences of cough),[1]; 1 mg ip,15.4
same,% Inhibition,[1]; 1 mg ip,5.79%
same,Treated (incidences of cough),[1]; 3 mg ip,12.4
same,% Inhibition,[1]; 3 mg ip,20.53%
same,Treated (incidences of cough),[1]; 30 mg ip,1
same,% Inhibition,[1]; 30 mg ip,92.48%
"Cc1ccsc1C(=CCCN1CCC[C@@H](C(=O)O)C1)c1sccc1C [(R)-1-[4,4-bis(3-methyl-2-thienyl)-3-butenyl]-3-piperidinecarboxylic acid, reference compound]",GABA uptake inhibitory activity,[2],having GABA uptake inhibitory activity
"O=C(O)C1CCCNC1 (centres unmarked) [Compound 2, 3-piperidinecarboxylic acid]",Treated (incidences of cough),[1]; 20 mg ip,9.75
same,% Inhibition,[1]; 20 mg ip,28.36%
"O=C(O)[C@@H]1CCCN(CCC=C(c2ccccc2)c2ccccc2)C1 [Compound 3, (R)-N-(4,4-diphenyl-3-butenyl)-3-piperidinecarboxylic acid]",GABA uptake inhibitory activity,[2],having GABA uptake inhibitory activity
same,Treated (incidences of cough),[1]; 1 mg ip,6.6
same,% Inhibition,[1]; 1 mg ip,49.23%
same,Treated (incidences of cough),[1]; 10 mg ip,2.8
same,% Inhibition,[1]; 10 mg ip,78.46%
same,Treated (incidences of cough),[3]; 10 mg po,8.2
same,% Inhibition,[3]; 10 mg po,42.25%
same,Treated (incidences of cough),[3]; 30 mg po,8
same,% Inhibition,[3]; 30 mg po,43.66%
"O=C(O)[C@@H]1CNCC[C@@H]1O (relative stereo) [Compound 6, cis4-hydroxy-3-piperidinecarboxylic acid]",Treated (incidences of cough),[1]; 10 mg ip,16.3
same,% Inhibition,[1]; 10 mg ip,8.21%
same,Treated (incidences of cough),[1]; 20 mg ip,8.6
same,% Inhibition,[1]; 20 mg ip,35.82%
"O=C(O)C1=CCCNC1 [Compound 4, 1,2,5,6-tetrahydro-3-pyridinecarboxylic acid]",GABA uptake inhibitory activity,[2],having GABA uptake inhibitory activity
same,Treated (incidences of cough),[1]; 6 mg ip,7.6
same,% Inhibition,[1]; 6 mg ip,48.30%
same,Treated (incidences of cough),[1]; 20 mg ip,4.75
same,% Inhibition,[1]; 20 mg ip,67.69%
